PubChem BioAssay (NCI)
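96-well plates; 48 h exposure; 5 concentrations. Endpoints by linear interpolation between flanking doses. Not reached: highest tested concentration assigned. The concentration for 50% growth inhibition is given as GI50. At the TGI there is no net growth.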

Key:
Test in all cases: growth of human tumour cells (NCI), 48 h
IGROV1 ovarian = system: IGROV1 ovarian
CAKI-1 renal = system: CAKI-1 renal
SNB-19 CNS = system: SNB-19 CNS
HCT-15 colon = system: HCT-15 colon
SR leukemia = system: SR leukemia
DU-145 prostate = system: DU-145 prostate
UACC-257 melanoma = system: UACC-257 melanoma
HS 578T breast = system: HS 578T breast
LOX IMVI melanoma = system: LOX IMVI melanoma
RXF 393 renal = system: RXF 393 renal

Compound | TGI (IGROV1 ovarian) | TGI (CAKI-1 renal) | TGI (SNB-19 CNS) | TGI (HCT-15 colon) | TGI (SR leukemia) | TGI (DU-145 prostate) | TGI (UACC-257 melanoma) | TGI (HS 578T breast) | TGI (LOX IMVI melanoma) | TGI (RXF 393 renal) | GI50 (IGROV1 ovarian) | GI50 (HS 578T breast) | GI50 (CAKI-1 renal) | GI50 (SNB-19 CNS) | GI50 (SR leukemia) | GI50 (DU-145 prostate) | GI50 (RXF 393 renal) | GI50 (UACC-257 melanoma) | GI50 (HCT-15 colon) | GI50 (LOX IMVI melanoma)
CN(CCCNC(=O)c1nn(-c2ccccc2)c2c1Cc1ccccc1-2)CCCNC(=O)c1nn(-c2ccccc2)c2c1Cc1ccccc1-2 | 3.07 µM | 2.46 µM | 3.07 µM | 3.1 µM | 1.42 µM | 3.21 µM | 3.28 µM |  |  |  |  |  |  |  |  |  |  |  |  | 
Nc1csc(-c2scc3c2OCCO3)c1N | 54.8 µM | > 100 µM | > 100 µM | 35.1 µM | > 100 µM | 53.8 µM | 54.2 µM | > 100 µM | 30.9 µM | 56.1 µM |  |  |  |  |  |  |  |  |  | 
COc1ccc2c3c([nH]c2c1)[C@H](C=C(C)C)N1C(=O)[C@@H]2CCCN2C(=O)[C@@H]1C3 | > 100 µM | > 100 µM | > 100 µM | > 100 µM | > 100 µM | > 100 µM | > 100 µM | > 100 µM | > 100 µM | > 100 µM |  |  |  |  |  |  |  |  |  | 
CC(C)(C)COS(=O)OCC(C)(C)C | > 100 µM | > 100 µM | > 100 µM | > 100 µM | > 100 µM | > 100 µM | > 100 µM | > 100 µM | > 100 µM | > 100 µM |  |  |  |  |  |  |  |  |  | 
CCC1=C(CC2NCCc3cc(OC)c(OC)cc32)CC2c3ccccc3CCN2C1 (stereo not drawn) | > 100 µM | > 100 µM | > 100 µM | > 100 µM | 24.1 µM | > 100 µM | 32 µM | 49.7 µM | 26.3 µM | > 100 µM |  |  |  |  |  |  |  |  |  | 
CC(NC(=O)c1ccc(OP(=O)(OCc2ccc([N+](=O)[O-])o2)N(C)CCCCCl)cc1)c1ccc(OCC2CCCCC2)c(C(N)=O)c1 (stereo not drawn) | 8.34 µM | > 58 µM | > 100 µM | 8.14 µM | 4.43 µM | > 29 µM | > 39.8 µM | > 41.6 µM | 5.43 µM | 9.25 µM |  |  |  |  |  |  |  |  |  | 
OC1CCSc2ccccc21 (stereo not drawn) | > 100 µM | > 100 µM | > 100 µM | > 100 µM | > 100 µM |  |  |  | > 100 µM | > 100 µM |  |  |  |  |  |  |  |  |  | 
CS(=O)(=O)Nc1cccc(-c2ccc3ncnc(Nc4cncc(Cl)c4)c3c2)c1 | 4.06 µM | > 100 µM | > 100 µM |  | 5.47 µM | > 100 µM | 4.82 µM | 6.41 µM |  | 4.41 µM | 0.533 µM | 1.35 µM | 2.57 µM | 3.84 µM | 1.67 µM | 1.16 µM | 1.43 µM | 2.08 µM |  | 
CN(CCCN1CCCC1)CCCN(C)C(=O)Cc1ccc(Cl)c(Cl)c1 | 67.8 µM | 49.1 µM | > 72.6 µM | > 87 µM | 28.2 µM | > 100 µM | 7.45 µM | 36 µM | 27.9 µM | 31.9 µM |  |  |  |  |  |  |  |  |  | 
O=C(NN1CCCCC1)c1cc2cc(CCl)ccc2oc1=O | 42.7 µM | 33.3 µM | 65.2 µM | 39.9 µM | 67.8 µM | > 100 µM | 59.1 µM | 36.4 µM | 35.9 µM | 34.4 µM |  |  |  |  |  |  |  |  |  | 
CC12OC(C(=O)C13CCC3)C1C(=O)c3c(O)ccc(O)c3C(=O)C12 (stereo not drawn) | 11.4 µM | 2.62 µM | > 50.5 µM | 3.4 µM | 2.23 µM | 19.5 µM | 7.81 µM | 17.6 µM | > 100 µM | 3.3 µM | 3.3 µM | 4.38 µM | 0.817 µM | 14.7 µM | 0.29 µM | 5.01 µM | 1.41 µM | 1.53 µM | 0.952 µM | 2.33 µM
c1ccc(C[N+]23C(CC[C@H]2c2ccccc2)CC[C@H]3c2ccccc2)cc1 (stereo partly drawn) | > 100 µM | > 100 µM | > 100 µM |  | > 100 µM | > 100 µM | 90.3 µM | > 100 µM | > 100 µM | 57.2 µM |  |  |  |  |  |  |  |  |  | 
COc1cc(S(=O)(=O)Nc2ccc(-c3csc(/N=C\c4cccc(Oc5ccccc5)c4)n3)cc2)ccc1Cl | 64.2 µM | > 100 µM | > 100 µM | > 100 µM | 81.9 µM | 61.7 µM |  | > 100 µM | 39 µM | 49.4 µM |  |  |  |  |  |  |  |  |  | 
COc1cc2cc[n+](C)c(Cc3ccc(Oc4cc(Cc5c6cc(OC)c(OC)cc6cc[n+]5C)ccc4OC)cc3)c2cc1OC | > 100 µM | > 100 µM | > 100 µM | > 100 µM | > 100 µM | > 100 µM | > 100 µM | > 100 µM | > 100 µM | > 100 µM |  |  |  |  |  |  |  |  |  | 
Clc1cccc(/C=c2\nc(-c3ccccc3)n3c2nc2ccccc23)c1 | > 100 µM | > 100 µM | > 100 µM | > 100 µM | > 100 µM | > 100 µM | > 100 µM | > 100 µM | > 100 µM | > 100 µM |  |  |  |  |  |  |  |  |  | 
